Test results published in article PMC9090415, “Discovery of small molecule inhibitors of Plasmodium falciparum apicoplast DNA polymerase” (Journal of Enzyme Inhibition and Medicinal Chemistry, 2022).

Target: P. falciparum apicoplast DNA polymerase (Pf-apPOL) (Plasmodium falciparum, UniProt Q8ILY1)
Assay: Fluorescence-based high-throughput DNA polymerase assay (molecular beacon), primary screen and dose-response
Format: biochemical
Conditions: for DNA Pol: 90 min, 10 µM; for IC50: supplemental file 2, sheet IC50 nontoxic compounds, Pf-apPOL
Outline: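 Single-point screening used 10 µM compound with 20 nM polymerase, 20 nM hairpin substrate and 6 µM dNTPs for 90 min at 25 °C. Confirmatory titrations (2.5–80 µM) followed fluorescence at three times, and IC50 was derived from a fit including a cooperativity term n.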

Chain of P. falciparum apicoplast DNA polymerase (Pf-apPOL) (Q8ILY1 entry or part of it): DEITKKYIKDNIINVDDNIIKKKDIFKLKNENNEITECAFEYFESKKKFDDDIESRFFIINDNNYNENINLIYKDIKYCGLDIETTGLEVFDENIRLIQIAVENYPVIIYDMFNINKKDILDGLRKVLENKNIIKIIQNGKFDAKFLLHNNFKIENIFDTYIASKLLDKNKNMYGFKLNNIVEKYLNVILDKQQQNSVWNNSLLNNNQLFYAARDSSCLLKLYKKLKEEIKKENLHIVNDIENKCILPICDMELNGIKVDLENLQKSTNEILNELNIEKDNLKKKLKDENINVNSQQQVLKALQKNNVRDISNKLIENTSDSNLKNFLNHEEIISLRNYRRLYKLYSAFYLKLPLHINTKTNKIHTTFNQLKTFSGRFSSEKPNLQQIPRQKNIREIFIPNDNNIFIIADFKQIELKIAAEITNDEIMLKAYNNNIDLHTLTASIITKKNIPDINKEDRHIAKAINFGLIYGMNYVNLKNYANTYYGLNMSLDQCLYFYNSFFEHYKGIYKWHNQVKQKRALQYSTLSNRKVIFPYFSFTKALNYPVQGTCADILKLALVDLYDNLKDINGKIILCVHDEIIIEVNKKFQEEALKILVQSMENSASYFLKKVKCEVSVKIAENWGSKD

Compound: O=C1NN(c2ccc(Cl)c(Cl)c2)C(=O)/C1=C/c1ccc(-c2ccc3c(c2)C(=O)OC3)o1 [Molecule 90, O=C1NN(C(=O)/C/1=C/c1ccc(o1)c1ccc2c(c1)C(=O)OC2)c1ccc(c(c1)Cl)Cl]
- DNA Pol ('DNA Pol' of the 186 hits list (screen value)): 51
- % inhibition Apo pol 10' (DRC-1, conc 2.5): 36.4105%
- % inhibition Apo pol 10' (DRC-1, conc 5): 68.8597%
- % inhibition Apo pol 10' (DRC-1, conc 10): 88.9603%
- % inhibition Apo pol 10' (DRC-1, conc 20): 93.857%
- % inhibition Apo pol 10' (DRC-1, conc 40): 90.5867%
- % inhibition Apo pol 10' (DRC-1, conc 80): 96.7456%
- % inhibition Apol 90' (DRC-1, conc 2.5): 24.0232%
- % inhibition Apol 90' (DRC-1, conc 5): 57.3373%
- % inhibition Apol 90' (DRC-1, conc 10): 84.2476%
- % inhibition Apol 90' (DRC-1, conc 20): 92.6423%
- % inhibition Apol 90' (DRC-1, conc 40): 85.5188%
- % inhibition Apol 90' (DRC-1, conc 80): 95.1265%
- % inhibition apPOL 180' (DRC-1, conc 2.5): 13.8146%
- % inhibition apPOL 180' (DRC-1, conc 5): 43.9311%
- % inhibition apPOL 180' (DRC-1, conc 10): 78.9656%
- % inhibition apPOL 180' (DRC-1, conc 20): 91.6394%
- % inhibition apPOL 180' (DRC-1, conc 40): 79.8129%
- % inhibition apPOL 180' (DRC-1, conc 80): 94.9011%
- % inhibition Apo pol 5' (DRC-2, conc 2.5): 31%
- % inhibition Apo pol 5' (DRC-2, conc 5): 10%
- % inhibition Apo pol 5' (DRC-2, conc 10): 34%
- % inhibition Apo pol 5' (DRC-2, conc 20): 38%
- % inhibition Apo pol 5' (DRC-2, conc 40): 61%
- % inhibition Apo pol 5' (DRC-2, conc 80): 63%
- % inhibition Apo pol 5' (DRC-2, concentration 5): 10%
- % inhibition Apo pol 5' (DRC-2, concentration 10): 34%
- % inhibition Apo pol 5' (DRC-2, concentration 80): 63%
- % inhibition Apol 40' (DRC-2, conc 2.5): 33%
- % inhibition Apol 40' (DRC-2, conc 5): 10%
- % inhibition Apol 40' (DRC-2, conc 10): 37%
- % inhibition Apol 40' (DRC-2, conc 20): 42%
- % inhibition Apol 40' (DRC-2, conc 40): 68%
- % inhibition Apol 40' (DRC-2, conc 80): 79%
- % inhibition Apol 40' (DRC-2, concentration 5): 10%
- % inhibition ApPOL 90' (DRC-2, conc 2.5): 30%
- % inhibition ApPOL 90' (DRC-2, conc 5): 9%
- % inhibition ApPOL 90' (DRC-2, conc 10): 35%
- % inhibition ApPOL 90' (DRC-2, conc 20): 40%
- % inhibition ApPOL 90' (DRC-2, conc 40): 67%
- % inhibition ApPOL 90' (DRC-2, conc 80): 82%
- % inhibition apPOL 180' (DRC-2, conc 2.5): 24%
- % inhibition apPOL 180' (DRC-2, conc 5): 6%
- % inhibition apPOL 180' (DRC-2, conc 10): 29%
- % inhibition apPOL 180' (DRC-2, conc 20): 34%
- % inhibition apPOL 180' (DRC-2, conc 40): 63%
- % inhibition apPOL 180' (DRC-2, conc 80): 83%
- % inhibition apPOL 180' (DRC-2, concentration 20): 34%
- % inhibition apPOL 180' (DRC-2, concentration 40): 63%
- DNA Pol (primary screen value, "DNA Pol"): 51

Compound: Cc1ccc(NC(=O)C2CCN(C(=O)c3cc4ccsc4[nH]3)CC2)c(Br)c1 [Molecule 14]
- IC50: 6.6 µM

Compound: CCCCCCCCCCCC1SCC(C(=O)O)N1C(C)=O (stereo not shown) [Molecule 72]
- % inhibition Apo pol 10' (DRC-1, concentration 2.5): 3.482%
- % inhibition Apo pol 10' (DRC-1, concentration 5): 5.699%
- % inhibition Apo pol 10' (DRC-1, concentration 10): 15.2619%
- % inhibition Apo pol 10' (DRC-1, concentration 20): 24.1814%
- % inhibition Apo pol 10' (DRC-1, concentration 40): 35.0794%
- % inhibition Apo pol 10' (DRC-1, concentration 80): 89.6133%
- % inhibition Apol 90' (DRC-1, concentration 2.5): 2.632%
- % inhibition Apol 90' (DRC-1, concentration 5): 5.518%
- % inhibition Apol 90' (DRC-1, concentration 10): 12.9803%
- % inhibition Apol 90' (DRC-1, concentration 20): 20.4329%
- % inhibition Apol 90' (DRC-1, concentration 40): 28.5438%
- % inhibition Apol 90' (DRC-1, concentration 80): 88.679%
- % inhibition apPOL 180' (DRC-1, concentration 2.5): -2.715%
- % inhibition apPOL 180' (DRC-1, concentration 5): -0.6083%
- % inhibition apPOL 180' (DRC-1, concentration 10): 5.5577%
- % inhibition apPOL 180' (DRC-1, concentration 20): 11.4894%
- % inhibition apPOL 180' (DRC-1, concentration 40): 17.8626%
- % inhibition apPOL 180' (DRC-1, concentration 80): 86.0518%
- % inhibition Apo pol 5' (DRC-2, concentration 2.5): 13%
- % inhibition Apo pol 5' (DRC-2, concentration 5): 16%
- % inhibition Apo pol 5' (DRC-2, concentration 10): 26%
- % inhibition Apo pol 5' (DRC-2, concentration 20): 38%
- % inhibition Apo pol 5' (DRC-2, concentration 40): 54%
- % inhibition Apo pol 5' (DRC-2, concentration 80): 59%
- % inhibition Apol 40' (DRC-2, concentration 2.5): 10%
- % inhibition Apol 40' (DRC-2, concentration 5): 15%
- % inhibition Apol 40' (DRC-2, concentration 10): 29%
- % inhibition Apol 40' (DRC-2, concentration 20): 44%
- % inhibition Apol 40' (DRC-2, concentration 40): 65%
- % inhibition Apol 40' (DRC-2, concentration 80): 76%
- % inhibition ApPOL 90' (DRC-2, concentration 2.5): 6%
- % inhibition ApPOL 90' (DRC-2, concentration 5): 13%
- % inhibition ApPOL 90' (DRC-2, concentration 10): 26%
- % inhibition ApPOL 90' (DRC-2, concentration 20): 43%
- % inhibition ApPOL 90' (DRC-2, concentration 40): 67%
- % inhibition ApPOL 90' (DRC-2, concentration 80): 81%
- % inhibition apPOL 180' (DRC-2, concentration 2.5): 0.516%
- % inhibition apPOL 180' (DRC-2, concentration 5): 5%
- % inhibition apPOL 180' (DRC-2, concentration 10): 17%
- % inhibition apPOL 180' (DRC-2, concentration 20): 34%
- % inhibition apPOL 180' (DRC-2, concentration 40): 64%
- % inhibition apPOL 180' (DRC-2, concentration 80): 84%
- % inhibition Apo pol 5' (conc. 2.5, DRC-2): 13%
- % inhibition ApPOL 90' (conc. 5, DRC-2): 13%
- % inhibition Apo pol 5' (conc. 10, DRC-2): 26%
- % inhibition ApPOL 90' (conc. 10, DRC-2): 26%
- DNA Pol (primary screen value by plate and well): 90
- DNA Pol (primary screen value of the 186 hits, unit not given): 90
- IC50: 48.9 µM
